*1 amine or outer side, *2 acyl side, *3 side chain or, on linkers, in order; H or OH if unused. Primed or numbered codes have the meaning given here. Where no end group is shown, it is not given here. [ ]: non-standard residue; d: D form. Atz = (S)-2-amino-3-(1H-1,2,3-triazol-4-yl)propanoyl residue, substituent (PEG) on triazole N1, O=C([C@H](Cc1cn([*:3])nn1)N[*:1])[*:2]; Oic = O=C(O)[C@@H]1C[C@@H]2CCCC[C@@H]2N1; Phe(4-Cl) = N[C@@H](Cc1ccc(Cl)cc1)C(=O)O; hArg = N=C(N)NCCCC[C@H](N)C(=O)O; Cha = N[C@@H](CC1CCCCC1)C(=O)O; 20K‑mPEG = 20 kDa methoxy-PEG; 40K‑mPEG = 40 kDa methoxy-PEG; pGlu = O=C1CC[C@@H](C(=O)O)N1; PEG10′ = not defined here; Nle = CCCC[C@H](N)C(=O)O; Mpa = O=C(O)CCS
What was measured:
human APJ = molecular target: T1, human APJ (Homo sapiens, UniProt P35414); assay: cAMP assay, stable CHO cell line expressing human APJ; type: cell-based; conditions: FIG. 5; cAMP seen with either human or rat APJ stable cell lines
T1 construct: expressed in transfected cells
T1 sequence (P35414 1-380): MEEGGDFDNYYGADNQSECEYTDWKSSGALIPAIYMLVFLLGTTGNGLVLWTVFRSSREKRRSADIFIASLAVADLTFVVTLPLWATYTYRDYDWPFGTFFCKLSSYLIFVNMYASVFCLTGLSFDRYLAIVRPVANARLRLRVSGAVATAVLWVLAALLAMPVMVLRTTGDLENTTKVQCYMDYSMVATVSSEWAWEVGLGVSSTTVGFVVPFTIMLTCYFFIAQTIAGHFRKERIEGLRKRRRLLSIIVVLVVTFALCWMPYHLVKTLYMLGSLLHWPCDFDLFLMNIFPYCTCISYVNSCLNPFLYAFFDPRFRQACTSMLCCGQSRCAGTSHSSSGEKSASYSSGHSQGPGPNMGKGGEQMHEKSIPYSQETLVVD
Protocol: Stable CHO cell lines expressing APJ were used for cAMP assays. The cells were incubated with stimulation buffer containing HANK's buffer, forskolin and 0.5 mM IBMX in the absence or presence of various concentrations' of peptides at 37° C. for 45 min. The cAMP level was determined using a cyclic AMP kit (DiscoverX) according to the manufacturer's instructions.

rat APJ receptor [1] = molecular target: T2, rat APJ receptor (Rattus norvegicus, UniProt Q9JHG3); assay: [35S]GTPγS assay, membranes from stable cell lines, rat APJ; type: biochemical; conditions: FIG. 10; effect of PEG size (20 kDa vs 40 kDa)
T2 construct: expressed in transfected cells; CHO is named only for the cAMP assay
T2 sequence (Q9JHG3 1-377): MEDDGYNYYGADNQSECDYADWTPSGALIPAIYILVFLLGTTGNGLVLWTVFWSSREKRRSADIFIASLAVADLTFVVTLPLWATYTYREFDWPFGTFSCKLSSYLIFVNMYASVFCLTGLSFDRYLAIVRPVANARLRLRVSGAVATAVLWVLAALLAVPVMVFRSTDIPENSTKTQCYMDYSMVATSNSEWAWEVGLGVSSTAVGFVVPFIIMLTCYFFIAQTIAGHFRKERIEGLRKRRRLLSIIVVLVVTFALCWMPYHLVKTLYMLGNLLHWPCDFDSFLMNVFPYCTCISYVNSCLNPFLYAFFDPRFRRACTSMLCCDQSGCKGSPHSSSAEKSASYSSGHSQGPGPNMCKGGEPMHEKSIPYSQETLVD
Protocol: To assay for GTP, membranes were prepared from stable cell lines and used to determine the efficacy/potency of the modified peptides. The optimal experimental conditions for the concentrations of GDP, MgCl2 and NaCl in the assay buffer were initially determined. The membranes were incubated with modified peptides in the assay buffer. The reaction was initiated by addition of [^35S] GTPγS in the absence or presence of peptides and incubated at room temperature for 90 min. […] Bound [^35S] GTPγS was separated from free radiolabel by filtration. The filter bound radioactivity was determined by liquid scintillation counting.
A series of PEGylated peptides were prepared and screened in vitro to explore the effects of PEG size and peptide valency on potency and efficacy in the GTPγS assay. In the assay 20 kDA and 40 kDA PEG were compared (FIG. 10).
Additionally mono- and multivalent bis, and tetrakis-peptide conjugated PEGS were prepared to explore peptide valency. […]

[2] = tested on: isolated Langendorff rat heart; assay: Langendorff isolated rat heart, hemodynamic cardiac function; conditions: control rats, FIGS. 7 and 8
Description: To assess the hemodynamic cardiac function of the peptides a Langendorff isolated heart system was used. The isolated heart from rat provides broad spectrum of measurements that can include biochemical, metabolic, morphological and physiological indices. The limitations/advantages of the method include absence of neurohormonal influences, neural regulation and high coronary flows. Such limitations, however, are offset by the ability to study direct cardiac effects without systemic circulation and a host of peripheral interactions.
The reproducibility and accuracy of measurements and relatively low costs over in vivo studies for profiling drugs outweigh any limitations of this method. Therefore, this method provides excellent dose-response relationship and sheds critical insight into the pharmacological and physiological properties of the molecules of interest.
The animals were anesthetized upon administration of 50-100 mg/kg dose of sodium pentobarbital for rat via the intraperitoneal route. The heart was excised and gently cradled between fingers to avoid injury followed by lifting slightly before incising the aorta, vena cava and pulmonary vessels Immediately after excision of the heart with aorta, the heart was mounted onto the cannula in the Langendorff apparatus via the aorta. The heart was perfused with modified oxygenated Krebs-Henseleit buffer pH7.5 and equilibrated with 95% O2/5% CO2 at 37° C. The perfusion was performed at a constant flow of 10 ml/min and paced at 300 bpm. The pressure was measured through a pressure sensing balloon catheter inserted in the LV cavity. The intrinsic inotropy (force of muscle contraction) and lusitropy (cardiac relaxation) effects of the heart were assessed by dp/dtmax and dp/dtmin.
These figures illustrate improvement in both systolic and diastolic function of normal hearts with peptides of SEQ ID NOs: 23 and 24.

FIGURE 4B = assay: FIGURE 4B
Description: Table printed on a drawing sheet, FIGURE 4B
Section band inside the table: Peptides with triazole linker and 20 kDa PEG modification
The patent's description of the figure: FIGS. 4A-B. In vitro stability of APJ agonists in plasma.
First reader's note: Rows 3 and 9 of the grid are section headings spanning all columns (linker type of the 20 kDa PEGylated peptides).

APJ receptor = molecular target: T3, APJ receptor (Rattus norvegicus, UniProt Q9JHG3); assay: EC50
T3 construct: expressed in transfected cells; CHO is named only for the cAMP assay
T3 sequence (Q9JHG3 whole entry, looked up): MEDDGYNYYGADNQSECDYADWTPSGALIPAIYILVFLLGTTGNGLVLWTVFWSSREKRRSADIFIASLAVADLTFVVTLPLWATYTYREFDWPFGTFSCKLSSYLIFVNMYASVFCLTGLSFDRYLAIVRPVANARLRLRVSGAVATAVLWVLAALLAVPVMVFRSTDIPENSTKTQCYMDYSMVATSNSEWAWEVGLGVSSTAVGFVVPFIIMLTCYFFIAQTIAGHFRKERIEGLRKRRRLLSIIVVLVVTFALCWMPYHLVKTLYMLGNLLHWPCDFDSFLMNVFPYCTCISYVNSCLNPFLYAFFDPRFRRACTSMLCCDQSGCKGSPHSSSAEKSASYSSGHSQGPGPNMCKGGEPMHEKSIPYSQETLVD
Description: Table printed on a drawing sheet, FIGURE 11
The patent's description of the figure: FIG. 11. Effects of peptide valency on in vitro activity.
First copying reader's note: The sheet prints no unit for the EC50 column; the plot under the table ([35S]GTPγS binding, rAPJ stable cell line) is not copied.

[3] = tested on: healthy rats and rats having MI-induced heart failure; assay: In vivo cardiac hemodynamics (Millar PV loop, femoral arterial pressure) in healthy and MI-induced heart failure rats; parameters: species or system rat; conditions: for mean dp/dt max increase: intravenous infusion, FIG. 9
Protocol: The cardiac function of healthy rats and the rats having MI (myocardial infarction)-induced heart failure was measured via the Millar PV loop system and femoral arterial pressure catheter were examined.
Male Lewis rats at 2-3 months of age were used for the studies. MI was induced by ligation of the left anterior descending coronary artery (LAD). Echocardiography was performed at 1 week post-MI for animal enrollment. If ejection fraction (EF) was more than 40% and no infarct was identified from echocardiography images, these animals were excluded from the study. The Millar PV loop catheter was inserted into the right common carotid artery and then advanced to the left ventricle (LV) for cardiovascular hemodynamic assessment. The arterial pressure catheter was inserted into a femoral artery for peripheral blood pressure monitoring.
Experiments were performed either on six-seven weeks post-MI rat, or healthy rats. […] Test articles were given intravenously via jugular vein, and 3 sets of peptide doses were used in the experiment. […] At the end of the experiment, the infarct size was verified by gross morphology if MI rats were used in the study.
Animals in MI groups had very similar infarct size (38-39% of LV) among the groups (results not shown).

rat APJ receptor [4] = molecular target: T4, rat APJ receptor (rat, UniProt Q9JHG3 1-377); assay: cell-based or functional assay
T4 sequence (looked up): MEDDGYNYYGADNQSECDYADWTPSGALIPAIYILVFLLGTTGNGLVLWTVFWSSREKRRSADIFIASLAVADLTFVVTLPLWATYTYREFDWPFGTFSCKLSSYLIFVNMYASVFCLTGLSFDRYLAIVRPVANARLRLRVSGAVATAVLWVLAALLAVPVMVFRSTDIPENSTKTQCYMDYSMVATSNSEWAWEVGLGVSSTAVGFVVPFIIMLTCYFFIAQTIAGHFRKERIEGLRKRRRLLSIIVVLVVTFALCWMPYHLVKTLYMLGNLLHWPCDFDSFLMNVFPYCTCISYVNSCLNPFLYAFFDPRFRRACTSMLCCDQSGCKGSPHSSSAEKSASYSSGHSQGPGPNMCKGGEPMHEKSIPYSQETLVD

[5] = dose ranges from 5.5 to 88 μg/kg

Molecule: 3-(1-(2-(mPEG(20kDa))ethyl)-1H-1,2,3-triazol-4-yl)alanine-[hArg68;Cha69;Oic74;Nle75;4-Cl-F77]Apelin-17(61-77) [SEQ ID NO: 25]
- agonist activity relative to pyr apelin-13 (SEQ ID NO: 128) (human APJ): potent and act as a full agonist

Molecule: 3-((2-(3-(mPEG(20kDa))propylamino)-2-oxoethyl)thio)propanamide-[hArg68;Cha69;Oic74;Nle75;4-Cl-Phe77]Apelin-17(61-77) [SEQ ID NO: 24]
- agonist activity relative to pyr apelin-13 (SEQ ID NO: 128) (human APJ): potent and act as a full agonist
- EC50 (rat APJ receptor [1]): 0.252 nM
- dp/dtmax [2]: dose dependent increase
- dp/dtmin [2]: decrease
- systolic pressure [2]: increases

Molecule: Atz(20K-mPEG)- KFRRQRP[hArg][Cha]SHKG[Oic][Nle]P[4-Cl-F] [compound 49]
- in vitro plasma stability (t1/2, min) | HUMAN (FIGURE 4B): 176 min
- in vitro plasma stability (t1/2, min) | MOUSE (FIGURE 4B): 55 min
- in vitro plasma stability (t1/2, min) | RAT (FIGURE 4B): 193 min

Molecule: Atz(20K-mPEG)-LRP[hArg][Cha]SHKG[Oic][Nle]P[4-Cl-F] [compound 50]
- in vitro plasma stability (t1/2, min) | HUMAN (FIGURE 4B): 264 min
- in vitro plasma stability (t1/2, min) | MOUSE (FIGURE 4B): 64 min
- in vitro plasma stability (t1/2, min) | RAT (FIGURE 4B): 256 min

Molecule: SEQ ID NO: 130: 20 kDa PEG-bis(Atz-KFRRQRP[hArg][Cha]SHKG[Oic][Nle]P[4-Cl—F]) (KFRRQRP[hArg][Cha]SHKG[Oic][Nle]P[Phe(4-Cl)]; not fully specified (N-terminus); also: 20 kDa PEG carries two peptide copies)
- EC50 (APJ receptor): 0.407 nM

Molecule: SEQ ID NO: 131: 20 kDa PEG-tetrakis(Atz-KFRRQRP[hArg][Cha]SHKG[Oic][Nle]P[4-Cl—F]) (KFRRQRP[hArg][Cha]SHKG[Oic][Nle]P[Phe(4-Cl)]; not fully specified (N-terminus); also: 20 kDa PEG carries four peptide copies)
- EC50 (APJ receptor): 0.794 nM

Molecule: [PE65;hArg68;Cha69;3-(1-(2-aminoethoxy(PEG9)ethyl)-1H-1,2,3-triazol-4-yl)Ala70;Oic74;Nle75;4-Cl-F77]Apelin-13(65-77) ([pGlu]RP[hArg][Cha][Atz](PEG10′)HKG[Oic][Nle]P[Phe(4-Cl)]) [SEQ ID NO: 23]
- Heart rate (HR) increase ([3]; MI rats, intravenous infusion of 88 μg/kg accumulative dose): up to 10.6%
- mean dp/dt max increase ([3]; MI rats): 24.5%
- other cardiac hemodynamic changes [3, 5]: No other cardiac hemodynamic changes were observed
- peripheral vascular resistant measurement such as mean arterial pressure [3, 5]: No significant changes
- mean dp/dt max increase ([3]; healthy rats): 32%
- dp/dtmax [2]: dose dependent increase
- dp/dtmin [2]: decrease
- systolic pressure [2]: increases

Molecule: {Thiopropionyl(20K-mPEG)}LLRP[hArg][Cha]SHKG[Oic][Nle]P[4-Cl—F]{FreeAcid} ({mPEG 20 kDa}-[Mpa]LLRP[hArg][Cha]SHKG[Oic][Nle]P[Phe(4-Cl)]-OH) [SEQ ID NO: 124]
- agonist activity relative to pyr apelin-13 (SEQ ID NO: 128) (human APJ): potent and act as a full agonist

Molecule: {40K‑mPEG-Thiopropionyl}-KFRRQRP[hArg][Cha]SHKG[Oic][Nle]P[Phe(4-Cl)]-OH [{Thiopropionyl(40K-mPEG)}KFRRQRP[hArg][Cha]SHKG[Oic][Nle]P[4-Cl-F]{FreeAcid}]
- EC50 (GTPγS assay) (rat APJ receptor [4]): 1.37 nM
- potency (GTPγS assay), fold reduction relative to 20 kDA (SEQ ID NO: 24) (rat APJ receptor [4]): 5 fold

Molecule: {20K‑mPEG-Thiopropionyl}-KFRRQRP[hArg][Cha]SHKG[Oic][Nle]P[Phe(4-Cl)] [Thiopropionyl(20K-mPEG)-KFRRQRP[hArg][Cha]SHKG[Oic][Nle]P[4-Cl-F]]
- EC50 (GTPγS assay) (rat APJ receptor [4]): 0.252 nM
